The values below come from patent US9969742B2, “Imidazotriazinone compounds” (Ironwood Pharmaceuticals, Inc., priority 2012, dated 2018).

Common to all, as to assay type: biochemical
In one assay the target is T1, PDE1B (Homo sapiens, UniProt Q01064).
T1 construct: purchased Reaction Biology Corporation, Malvern, Pa
Description: Phosphodiesterase enzyme screening assay, PDE1B. An excerpt: (§1) Compounds of the invention were screened against PDE1A, PDE1B, PDE2A, PDE3A, PDE3B, PDE4A1A, PDE4B1, PDE4D3, PDE5A1, PDE6C, PDE7A, PDE8A1, PDE9A2, PDE10A2 AND PDE11A isoforms of the phosphodiesterase enzyme to determine activity and overall selectivity through comparative analysis. […] Where 8-methoxy-IBMX and Zaprinast were used as reference inhibitors.
(§2) The phosphodiesterase enzyme isoforms were obtained from a commercial retailer (Reaction Biology Corporation, Malvern, Pa.) for use in the instant screening assay.
(§3) The analysis was completed using the Caliper LabChip 3000 and a 12-sipper LabChip. LabChip assays are separations-based, meaning that the product and substrate are electrophoretically separated, thereby minimizing interferences and yielding the highest data quality available on any screening platform. […] High Z′ values, few false positives, few false negatives and analytical quality reproducibility are the reasons cited for the increasing reliance on the LabChip assays.
(§4) The off-chip incubation mobility-shift phosphodiesterase assay uses a microfluidic chip to measure the conversion of a fluorescent cyclic AMP substrate to a 5′-AMP product, or a cyclic GMP substrate to a 5′-GMP product. The reaction mixture, from a microtiter plate well, is introduced through a capillary sipper onto the chip, where the fluorescent substrate and product are separated by electrophoresis and detected via laser-induced fluorescence. […] The precision of microfluidics allows researchers to detect subtle interactions between drug candidates and therapeutic targets.
(§5) Reactions were carried out in 100 mM HEPES (pH 7.5), 5 mM MgCl2, 1 mM DTT, 0.003% Brij, 4.0 μM cGMP substrate. The reaction was started by addition of cGMP or cAMP and incubated for 1 hour at R.T. The reaction was terminated by the addition of stop buffer containing 100 mM HEPES (pH 7.5), 15 mM EDTA, 0.015% Brij-35, 5% DMSO. Cyclic AMP/GMP substrate and 5′-AMP/5′-GMP product were separated by charge using electrophoretic mobility shift. Product formed was compared to control wells to determine inhibition or enhancement of enzyme activity.
(§6) Data points were averages of quadruplicate wells and error bars represented the SEM for each point.

The target in another assay is T2, PDE9A2 (Homo sapiens, UniProt O76083).
T2 construct: purchased Reaction Biology Corporation, Malvern, Pa
T2 sequence (O76083 1-533 isoform O76083-2): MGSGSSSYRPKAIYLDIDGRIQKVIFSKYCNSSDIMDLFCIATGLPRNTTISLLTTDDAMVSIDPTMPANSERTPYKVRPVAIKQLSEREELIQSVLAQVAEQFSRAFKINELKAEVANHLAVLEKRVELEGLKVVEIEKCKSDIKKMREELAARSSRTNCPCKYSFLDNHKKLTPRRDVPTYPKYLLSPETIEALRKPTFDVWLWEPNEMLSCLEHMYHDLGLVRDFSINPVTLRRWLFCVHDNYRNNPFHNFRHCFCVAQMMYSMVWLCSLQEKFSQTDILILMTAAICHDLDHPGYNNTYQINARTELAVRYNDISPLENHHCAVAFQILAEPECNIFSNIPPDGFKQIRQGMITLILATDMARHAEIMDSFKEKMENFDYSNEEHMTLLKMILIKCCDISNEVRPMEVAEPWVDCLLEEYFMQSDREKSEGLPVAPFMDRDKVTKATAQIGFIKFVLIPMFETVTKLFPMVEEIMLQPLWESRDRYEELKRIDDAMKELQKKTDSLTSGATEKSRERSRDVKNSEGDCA
Description: Phosphodiesterase enzyme screening assay, PDE9A2. A digest of the protocol: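 Read-out was electrophoretic mobility-shift separation on chip of fluorescent cyclic nucleotide from 5′-AMP/5′-GMP, with inhibition or enhancement judged against control wells (quadruplicate means). Reactions lasted 1 h at RT in HEPES pH 7.5 buffer with MgCl2, DTT and Brij plus 4.0 μM cGMP substrate, then were halted with EDTA stop buffer.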

The target in the next assay is T3, PDE1A (Homo sapiens, UniProt P54750).
T3 construct: purchased Reaction Biology Corporation, Malvern, Pa
T3 sequence (P54750 whole entry): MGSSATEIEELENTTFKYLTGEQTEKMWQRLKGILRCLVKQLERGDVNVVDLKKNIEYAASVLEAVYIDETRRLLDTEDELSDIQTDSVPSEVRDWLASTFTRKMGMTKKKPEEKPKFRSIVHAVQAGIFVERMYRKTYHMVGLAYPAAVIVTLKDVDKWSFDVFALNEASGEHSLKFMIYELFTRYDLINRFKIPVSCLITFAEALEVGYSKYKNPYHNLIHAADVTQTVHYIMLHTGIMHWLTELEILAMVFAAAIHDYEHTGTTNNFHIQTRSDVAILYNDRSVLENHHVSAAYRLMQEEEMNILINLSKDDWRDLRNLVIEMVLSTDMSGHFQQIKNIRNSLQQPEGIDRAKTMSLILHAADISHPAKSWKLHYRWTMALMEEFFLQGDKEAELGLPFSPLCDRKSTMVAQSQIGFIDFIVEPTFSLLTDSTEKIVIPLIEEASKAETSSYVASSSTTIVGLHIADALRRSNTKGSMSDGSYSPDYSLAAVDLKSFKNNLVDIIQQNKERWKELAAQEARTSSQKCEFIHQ
Put plainly: Phosphodiesterase enzyme screening assay, PDE1A.
Description: as §1, §2, §3, §4, §5, §6

The mark [1] stands for this setting: ratio of IC50 values, PDE1B versus PDE9A2, value greater than 1 indicates greater selectivity for PDE9A2.
[2] abbreviates: ratio of IC50 values, PDE1A versus PDE9A2, value greater than 1 indicates greater selectivity for PDE9A2.
Where [3] appears, read: Table 2, ratio of IC50 values, value greater than 1 indicates greater selectivity for PDE9A2.
[4] abbreviates: Table 1, ratio of IC50 values, value greater than 1 indicates greater selectivity for PDE9A2.
[5] abbreviates: Table 1, 10 concentrations, 4.0 μM cGMP substrate, 1 hour at R.T., read-out: Band (PDE9A2 IC50).
[6] abbreviates: ratio of IC50 values, value greater than 1 indicates greater selectivity for PDE9A2.
The mark [7] stands for this setting: 4.0 μM cGMP substrate, 1 hour at R.T., read-out: Band (PDE9A2 IC50).
Setting [8] is: ratio of IC50 values PDE1B / PDE9A2, value greater than 1 = greater selectivity for PDE9A2.
[9] abbreviates: ratio of IC50 values PDE1A / PDE9A2, value greater than 1 = greater selectivity for PDE9A2.

Like-named read-outs stand apart in the source and are kept apart here.

T1 sequence (Q01064 whole entry): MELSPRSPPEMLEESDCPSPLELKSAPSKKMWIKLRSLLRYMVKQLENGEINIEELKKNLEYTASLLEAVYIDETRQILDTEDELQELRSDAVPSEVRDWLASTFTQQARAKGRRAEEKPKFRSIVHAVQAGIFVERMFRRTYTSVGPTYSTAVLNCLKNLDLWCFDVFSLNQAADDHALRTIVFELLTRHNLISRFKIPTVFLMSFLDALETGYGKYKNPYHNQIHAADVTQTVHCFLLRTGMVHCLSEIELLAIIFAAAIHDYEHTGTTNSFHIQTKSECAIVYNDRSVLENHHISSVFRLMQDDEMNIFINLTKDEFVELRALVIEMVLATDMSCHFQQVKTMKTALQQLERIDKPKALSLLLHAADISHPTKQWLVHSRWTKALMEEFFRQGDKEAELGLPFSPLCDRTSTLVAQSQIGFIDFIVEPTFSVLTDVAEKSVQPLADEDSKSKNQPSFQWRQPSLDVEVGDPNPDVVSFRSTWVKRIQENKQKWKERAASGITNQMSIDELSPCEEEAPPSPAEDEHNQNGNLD

`CC1CN(Cc2ccc3cccc(F)c3n2)CC1c1nn2c(C3CCOCC3)ncc2c(=O)[nH]1` (single isomer, unassigned; (+)) [(+)-2-((3,4-trans)-1-((8-fluoroquinolin-2-yl)methyl)-4-methylpyrrolidin-3-yl)-7-(tetrahydro-2H-pyran-4-yl)imidazo[5,1-f][1,2,4]triazin-4(3H)-one]: the “PDE1B selectivity (versus PDE9A2)” value at PDE1B (ratio of IC50 values, PDE1B versus PDE9A2, value greater than 1 = greater selectivity for PDE9A2) stood at 76. Further, at PDE9A2 (Table 3, 4.0 μM cGMP substrate, 1 hour at R.T., read-out: Band (PDE9A2 IC50)), the IC50 is less than 1000 nM. Moreover, at PDE1A (ratio of IC50 values, PDE1A versus PDE9A2, value greater than 1 = greater selectivity for PDE9A2), the “PDE1A selectivity (versus PDE9A2)” value is reported as 39.

With `Cc1ccccc1-c1ncc2c(=O)[nH]c(C3CN(Cc4nc5ccccn5n4)CC3C)nn12` (single isomer, unassigned; (+)) [(+)-2-((3,4-trans)-1-([1,2,4]triazolo[1,5-a]pyridin-2-ylmethyl)-4-methylpyrrolidin-3-yl)-7-(o-tolyl)imidazo[5,1-f][1,2,4]triazin-4(3H)-one], the “PDE1B selectivity (versus PDE9A2)” value at PDE1B (setting [1]) is given as 429. Besides, at PDE9A2 (read-out: Band (PDE9A2 IC50)), the 50% inhibitory concentration (IC50) was less than 1000 nM. Further, the “PDE1A selectivity (versus PDE9A2)” value on PDE1A (setting [2]) is reported as 490.

Consider `Cc1cc(C)nc(CN2CC(C)C(c3nn4c(C5CCOCC5)ncc4c(=O)[nH]3)C2)n1` (single isomer, unassigned; (+)) [(+)-2-((3,4-trans)-1-((4,6-dimethylpyrimidin-2-yl)methyl)-4-methylpyrrolidin-3-yl)-7-(tetrahydro-2H-pyran-4-yl)imidazo[5,1-f][1,2,4]triazin-4(3H)-one], for which, on PDE1B (setting [3]), the “PDE1B selectivity (versus PDE9A2)” value is given as 767. Also, the IC50 on PDE9A2 (Table 2, 10 concentrations, 4.0 μM cGMP substrate, 1 hour at R.T., read-out: Band (PDE9A2 IC50)) was less than 1000 nM. Also, on PDE1A (setting [3]), the “PDE1A selectivity (versus PDE9A2)” value was 947.

As for `Cc1nccc(CN2CC(C)C(c3nn4c(C5CCOCC5)ncc4c(=O)[nH]3)C2)n1` (single isomer, unassigned; (+)) [(+)-2-((3,4-trans)-4-methyl-1-((2-methylpyrimidin-4-yl)methyl)pyrrolidin-3-yl)-7-(tetrahydro-2H-pyran-4-yl)imidazo[5,1-f][1,2,4]triazin-4(3H)-one], the “PDE1B selectivity (versus PDE9A2)” value on PDE1B (setting [4]) is given as 400. The concentration for half-maximal inhibition (IC50) at PDE9A2 (setting [5]) is less than 1000 nM. At PDE1A (setting [4]), the “PDE1A selectivity (versus PDE9A2)” value came out at 184.

With `Cc1ccc(F)cc1-c1ncc2c(=O)[nH]c(C3CN(Cc4nc5ccccn5n4)CC3C)nn12` (single isomer, unassigned; (+)) [(+)-2-((3,4-trans)-1-([1,2,4]triazolo[1,5-a]pyridin-2-ylmethyl)-4-methylpyrrolidin-3-yl)-7-(5-fluoro-2-methylphenyl)imidazo[5,1-f][1,2,4]triazin-4(3H)-one], the “PDE1B selectivity (versus PDE9A2)” value at PDE1B (ratio of IC50 values PDE1B vs PDE9A2, value greater than 1 indicates greater selectivity for PDE9A2) is 473. The 50% inhibitory concentration (IC50) at PDE9A2 (IC50 band, 4.0 μM cGMP substrate, 1 hour at R.T.) was less than 1000 nM. The “PDE1A selectivity (versus PDE9A2)” value at PDE1A (ratio of IC50 values PDE1A vs PDE9A2, value greater than 1 indicates greater selectivity for PDE9A2) came to 487.

On to `CC1CN(Cc2ncno2)CC1c1nn2c(C3CCOCC3)ncc2c(=O)[nH]1` (single isomer, unassigned; (+)) [(+)-2-((3,4-trans)-1-((1,2,4-oxadiazol-5-yl)methyl)-4-methylpyrrolidin-3-yl)-7-(tetrahydro-2H-pyran-4-yl)imidazo[5,1-f][1,2,4]triazin-4(3H)-one], for which the “PDE1B selectivity (versus PDE9A2)” value on PDE1B (setting [6]) worked out at 1528. The 50% inhibitory concentration (IC50) on PDE9A2 (read-out: Band (PDE9A2 IC50)) is less than 1000 nM. Also, at PDE1A (setting [6]), the “PDE1A selectivity (versus PDE9A2)” value came out at 650.

With `CC1CN(c2ncccn2)CC1c1nn2c(C3CCOCC3)ncc2c(=O)[nH]1` (single isomer, unassigned; (+)) [(+)-2-((3,4-trans)-4-methyl-1-(pyrimidin-2-yl)pyrrolidin-3-yl)-7-(tetrahydro-2H-pyran-4-yl)imidazo[5,1-f][1,2,4]triazin-4(3H)-one], on PDE1B (setting [4]), the “PDE1B selectivity (versus PDE9A2)” value came out at 1. Also, the 50% inhibitory concentration (IC50) at PDE9A2 (setting [5]) was less than 1000 nM. Moreover, the “PDE1A selectivity (versus PDE9A2)” value on PDE1A (setting [4]) was 1.

Regarding `Cc1ccncc1-c1ncc2c(=O)[nH]c(C3CN(Cc4ccccc4)CC3C)nn12` (single isomer, unassigned; (+)) [(+)-2-((3,4-trans)-1-benzyl-4-methylpyrrolidin-3-yl)-7-(4-methylpyridin-3-yl)imidazo[5,1-f][1,2,4]triazin-4(3H)-one], the “PDE1B selectivity (versus PDE9A2)” value on PDE1B (setting [1]) came out at 379. Moreover, the IC50 on PDE9A2 (read-out: Band (PDE9A2 IC50)) was less than 1000 nM. Besides, the “PDE1A selectivity (versus PDE9A2)” value at PDE1A (setting [2]) is recorded as 148.

`CCC(CC)c1ncc2c(=O)[nH]c(C3CN(Cc4nc5ccccn5n4)CC3C)nn12` (single isomer, unassigned; (+)) [(+)-2-((3,4-trans)-1-([1,2,4]triazolo[1,5-a]pyridin-2-ylmethyl)-4-methylpyrrolidin-3-yl)-7-(pentan-3-yl)imidazo[5,1-f][1,2,4]triazin-4(3H)-one]: the “PDE1B selectivity (versus PDE9A2)” value at PDE1B (ratio of IC50 values PDE1B / PDE9A2, value greater than 1 indicates greater selectivity for PDE9A2) was 306. For the same molecule, the half-inhibitory concentration (IC50) at PDE9A2 (setting [7]) is less than 1000 nM. The “PDE1A selectivity (versus PDE9A2)” value on PDE1A (ratio of IC50 values PDE1A / PDE9A2, value greater than 1 indicates greater selectivity for PDE9A2) came out at 386.

Turning to `Cc1ccnc(CN2CC(C)C(c3nn4c(C5CCOCC5)ncc4c(=O)[nH]3)C2)c1` (single isomer, unassigned; (+)) [(+)-2-((3,4-trans)-4-methyl-1-((4-methylpyridin-2-yl)methyl)pyrrolidin-3-yl)-7-(tetrahydro-2H-pyran-4-yl)imidazo[5,1-f][1,2,4]triazin-4(3H)-one], the “PDE1B selectivity (versus PDE9A2)” value on PDE1B (setting [8]) came out at 116. Moreover, the 50% inhibitory concentration (IC50) at PDE9A2 (setting [7]) is less than 1000 nM. The “PDE1A selectivity (versus PDE9A2)” value at PDE1A (setting [9]) turned out to be 143.

As for `CC1CN(Cc2cccs2)CC1c1nn2c(C3CCOCC3)ncc2c(=O)[nH]1` (single isomer, unassigned; (+)) [(+)-2-((3,4-trans)-4-methyl-1-(thiophen-2-ylmethyl)pyrrolidin-3-yl)-7-(tetrahydro-2H-pyran-4-yl)imidazo[5,1-f][1,2,4]triazin-4(3H)-one], on PDE1B (setting [8]), the “PDE1B selectivity (versus PDE9A2)” value turned out to be 140. In addition, the IC50 on PDE9A2 (setting [7]) is less than 1000 nM. Besides, the “PDE1A selectivity (versus PDE9A2)” value on PDE1A (setting [9]) came to 91.

As to `CC1CN(Cc2ccc(F)c(Cl)c2)CC1c1nn2c(C3CCOCC3)ncc2c(=O)[nH]1` (single isomer, unassigned; (+)) [(+)-2-((3,4-trans)-1-(3-chloro-4-fluorobenzyl)-4-methylpyrrolidin-3-yl)-7-(tetrahydro-2H-pyran-4-yl)imidazo[5,1-f][1,2,4]triazin-4(3H)-one], on PDE1B (setting [8]), the “PDE1B selectivity (versus PDE9A2)” value came to 430. For the same molecule, at PDE9A2 (setting [7]), the IC50 is less than 1000 nM. Besides, at PDE1A (setting [9]), the “PDE1A selectivity (versus PDE9A2)” value is on record as 604.

In the case of `CCC(CC)c1ncc2c(=O)[nH]c(C3CN(Cc4ccccc4)CC3C)nn12` (single isomer, unassigned; (+)) [(+)-2-((3,4-trans)-1-benzyl-4-methylpyrrolidin-3-yl)-7-(pentan-3-yl)imidazo[5,1-f][1,2,4]triazin-4(3H)-one], on PDE1B (setting [1]), the “PDE1B selectivity (versus PDE9A2)” value worked out at 86. Besides, the IC50 on PDE9A2 (read-out: Band (PDE9A2 IC50)) was less than 1000 nM. The “PDE1A selectivity (versus PDE9A2)” value on PDE1A (setting [2]) amounted to 175.

`CC1CN(Cc2ccc(Cl)cc2)CC1c1nn2c(C3CCC(F)(F)CC3)ncc2c(=O)[nH]1` (single isomer, unassigned; (+)) [(+)-2-((3,4-trans)-1-(4-chlorobenzyl)-4-methylpyrrolidin-3-yl)-7-(4,4-difluorocyclohexyl)imidazo[5,1-f][1,2,4]triazin-4(3H)-one]: the “PDE1B selectivity (versus PDE9A2)” value at PDE1B (setting [4]) was determined as 1210. Moreover, the IC50 at PDE9A2 (setting [5]) was less than 1000 nM. In addition, the “PDE1A selectivity (versus PDE9A2)” value on PDE1A (setting [4]) was 595.

What is called IC50 is the concentration at which inhibition is half-maximal.
